Data published in PubChem BioAssay AID1996.
Converted amounts (≈) assume the structure as drawn.

Details: buffer; pH 7.4; 200.0 µM

Row | SMILES | solubility kinetic [µg/mL]
1 | Fc1ccc(NC(=S)NCc2cccnc2)cc1 | > 39.2
2 | C=CCNC(=O)/C(C#N)=C/c1ccc(C)o1 | > 32.4
3 | O=C(COC(=O)c1ccc2ccccc2c1O)Nc1ccccc1 | 2.3 (≈ 7.16 µM)
4 | Nc1nc(C2CCOCC2)cs1 | > 27.6
5 | O=C(CSc1nnc(-c2ccccn2)o1)Nc1ccccc1 | > 46.9
6 | CNc1ccc(C(=O)OCC(=O)NC(=O)NC2CCCCC2)cc1[N+](=O)[O-] | 1.7 (≈ 4.49 µM)
7 | O=C(NCCCNC(=O)c1ccco1)c1cccc(F)c1 | > 43.5
8 | Oc1cccc2ccc(/C=C/c3ccccc3Cl)nc12 | < 0.6
9 | COc1ccccc1N1CCN(C(=O)c2ccco2)CC1 | > 42.9
10 | CCOC(=O)CSc1nc2c(c(=O)[nH]1)C(C)(CC)Cc1ccccc1-2 (stereo not given) | 1.5 (≈ 4.18 µM)
11 | O=C(Nc1scc(-c2ccccc2)c1C(=O)O)c1ccccc1Cl | 52.6 (≈ 147 µM)
12 | Cc1ccccc1NC(=O)c1ccc2c(c1)CCN2S(C)(=O)=O | 6.3 (≈ 19.1 µM)
13 | CC(=O)N1CCN(C(=O)CNC(=O)c2cccs2)CC1 | > 44.3
14 | CCC/C(O)=C1\C(=O)CC(C)(C)CC1=Nc1ccc(OC)cc1 | 41.6 (≈ 132 µM)
15 | CCCCOc1ccc(/C(O)=C(\C#N)c2nc3ccccc3[nH]2)cc1 | < 0.2
16 | Cc1nc(-c2ccccc2)sc1C(=O)/C=C/N(C)C | 36.3 (≈ 133 µM)
17 | CCC(CO)NC(=O)c1ccccc1C(F)(F)F (stereo not given) | 28 (≈ 107 µM)
18 | Cc1cnc(C(=O)OCc2nc3ccccc3o2)cn1 | > 40.4
19 | Cc1cccc2c(=O)cc(C)n(CC(N)=O)c12 | > 34.5
20 | O=C(NCCc1ccc(Cl)cc1)C1(c2ccccc2)CC1 | 35.4 (≈ 118 µM)
21 | O=C1/C(=C\c2ccc(O)c(O)c2)N=C2CCCCCN12 | > 40.8
22 | O=C(Nc1ccccc1)OCCOc1ccc(Br)cc1 | < 0.7
23 | O=C(COC(=O)Cc1cccc(C(F)(F)F)c1)NC(=O)NC1CCCC1 | 32.1 (≈ 86.2 µM)
24 | O=C(O)c1cc(-c2ccccc2Cl)n(-c2ccc(F)cc2)n1 | > 47.5

Row | SMILES | solubility kinetic [µg/mL]
25 | O=C(Cc1ccc(Cl)cc1)N1CCN(c2ccccc2)CC1 | 44.5 (≈ 141 µM)
26 | O=C(c1ccc2ccccc2c1)N1CCN(c2ccccn2)CC1 | 47.5 (≈ 150 µM)
27 | CC(C)c1ncc(C(O)c2ccccc2)n1C (stereo not given) | > 34.5
28 | CCC(C)[C@H](NC(=O)N1CCCCC1)C(=O)OC (stereo not given in full) | > 38.5
29 | CC(C)(C)C(=O)COc1ccccc1[N+](=O)[O-] | > 35.6
30 | CCOc1cc(C(=O)NC2CC(C)(C)NC(C)(C)C2)cc(OCC)c1OCC | > 58.9
31 | CCC(C)NC(=O)C1c2ccccc2C(=O)N1Cc1ccc(F)cc1 (stereo not given) | > 51.1
32 | CC[C@H](C)[C@H](NC(N)=O)C(=O)Nc1ccc(NC(C)=O)cc1 | > 46
33 | Cc1cc(C)nc(Nc2ccc(F)cc2)n1 | > 32.6
34 | COc1cccc(NC(=S)N2CCN(C)CC2)c1 | > 39.8
35 | CCOc1ccc(NC(=O)c2cc(=O)[nH]c3ccccc23)cc1 | 1.3 (≈ 4.22 µM)
36 | CNc1nc(N)c([N+](=O)[O-])c(Nc2cccc(Cl)c2)n1 | 0.4 (≈ 1.36 µM)
37 | CC12CN3CC(C)(CN(C1)C3c1ccc(F)cc1)C2 (stereo not given) | 26.2 (≈ 101 µM)
38 | CCN(CC)S(=O)(=O)c1cccc(C(=O)Nc2cc(C)on2)c1 | 13.4 (≈ 39.7 µM)
39 | CCOc1ccccc1CNC(=O)CCc1cn(C)c2ccccc12 | 3.1 (≈ 9.21 µM)
40 | Cc1ccc2c(CN3CCCCC3CCO)cc(=O)oc2c1 (stereo not given) | 39.4 (≈ 131 µM)
41 | COC(=O)c1cn(S(=O)(=O)c2ccccc2)c2ccccc12 | 2 (≈ 6.34 µM)
42 | CC(C)c1ccccc1OCC(=O)N1CCCCCCC1 | 18.8 (≈ 65 µM)
43 | CC1CN(c2nc(Nc3ccccc3F)nc(N)c2[N+](=O)[O-])CC(C)O1 (stereo not given) | > 54.4
44 | CCCC(=O)Nc1ccc(-c2cn3cccnc3n2)cc1 | > 42
45 | Cn1cnc2c1c(=O)n(Cc1ccc(Cl)cc1Cl)c(=O)n2C | > 50.9
46 | N#Cc1ccccc1NC(=O)c1ccc2c(c1)OCO2 | 10.8 (≈ 40.6 µM)
47 | O=S(=O)(c1ccc(-c2ccon2)s1)N1CCN(c2ccncc2)CC1 | 37.8 (≈ 100 µM)
48 | COc1ccc(Nc2nc(N3CCOCC3)nc(N3CCOCC3)n2)cc1 | 1.4 (≈ 3.76 µM)

Row | SMILES | solubility kinetic [µg/mL]
49 | CCOc1ccc(C(=O)NCC(=O)N2CCC(C)CC2)cc1OCC | > 52.3
50 | Cc1cn(CC(=O)c2ccccc2)c2ccccc12 | 1.2 (≈ 4.81 µM)
51 | CC(=O)CCN1C(=O)NC2(CCCc3ccccc32)C1=O (stereo not given) | > 42.9
52 | COc1ccc(S(=O)(=O)N2CCCCCC2)cc1N | > 42.7
53 | CCCCn1c(O)c(C(C)=NCc2ccco2)c(=O)[nH]c1=O | 9.1 (≈ 29.8 µM)
54 | C/C(=C\c1ccc(Cl)cc1)C(=O)c1c(C)cc(C)[nH]c1=O | 42.8 (≈ 142 µM)
55 | CCc1ccccc1NC(=O)CC(NCc1ccccc1)C(=O)O (stereo not given) | > 49
56 | CCN1C(=O)C(=O)N(CC(=O)Nc2cc(C)ccc2C)C1=O | > 45.5
57 | COc1cccc(-c2nc3ccc([N+](=O)[O-])cc3o2)c1 | < 0.3
58 | Cc1ncn2cc(-c3ccc(Cl)cc3Cl)[nH]c(=O)c12 | 2.8 (≈ 9.52 µM)
59 | Cc1ccc(N2CC(O)Cn3c2nc2c3c(=O)n(C)c(=O)n2C)cc1 (stereo not given) | 24.5 (≈ 71.8 µM)
60 | O=C(c1ccccc1)C(C(=O)N1CCCCC1)n1ccccc1=O (stereo not given) | > 48.7
61 | Cc1nccn1CC1CCc2c(c3ccccc3n2C)C1=O.Cl (stereo not given) | 47.7
62 | c1cc2c(cc1CN1CCNCC1)OCO2 | 31.8 (≈ 144 µM)
63 | CN(CCN1CCOCC1)Cc1nc(-c2ccc(Cl)cc2)no1 | 38.1 (≈ 113 µM)
64 | CCOCCCNC(=O)c1cc2c(s1)-c1ccccc1SC2 | 27.6 (≈ 82.8 µM)
65 | S=C(Nc1ccc2c(c1)OCCO2)Nc1ccccc1Cl | > 48.1
66 | Cn1c(SCCc2ccc([N+](=O)[O-])cc2)nccc1=O | 25.9 (≈ 88.9 µM)
67 | O=C1CN=C(c2ccccc2)c2c(sc3c2CCCC3)N1 | 36.3 (≈ 122 µM)
68 | CC(C)c1cc(O)c(-c2ccccc2)c(=O)n1-c1ccc(Cl)cc1 | < 0.7
69 | CCC(=NCCCn1ccnc1)c1c(O)n(-c2ccccc2)c(=O)[nH]c1=O | > 55.1
70 | COC(=O)c1ccc(OC(=O)CN2C(=O)c3ccccc3C2=O)cc1 | 50.6 (≈ 149 µM)
71 | N#C/C(=C\c1ccc(-c2ccccc2[N+](=O)[O-])o1)C(N)=O | 2.2 (≈ 7.77 µM)
72 | OCCOCCOc1cccc2[nH]ccc12 | 25.9 (≈ 117 µM)

Row | SMILES | solubility kinetic [µg/mL]
73 | COc1ccccc1/C=C/C(=O)NCC(=O)N/N=C/c1ccc(C)o1 | > 51.2
74 | Cn1cc(C(=O)C(=O)N2CCc3ccccc32)c2ccccc21 | 0.8 (≈ 2.63 µM)
75 | CCN(C(=O)CSc1ncccc1C(=O)O)C1CCCCC1 | > 48.4
76 | CC(C)c1ccc(Nc2ccc(C(=O)O)cc2[N+](=O)[O-])cc1 | > 45
77 | O=C1N(Cc2ccc(F)cc2)CCN1c1ccc(F)cc1 | 29.3 (≈ 102 µM)
78 | CC(C)(C)C(=O)Nc1ccc(F)cc1[N+](=O)[O-] | 13.8 (≈ 57.4 µM)
79 | Cc1nc(N)c(Cc2ccccc2F)c(N)n1 | > 34.8
80 | COc1ccc(C2c3ccsc3CCN2C(=O)NC(C)(C)C)cc1 (stereo not given) | 1.5 (≈ 4.35 µM)
81 | CC(C)(C)C(=O)Nc1ccc(-c2cn3cccnc3n2)cc1 | 42.6 (≈ 145 µM)
82 | COC(=O)c1cnc(Nc2cccc(C(F)(F)F)c2)c([N+](=O)[O-])c1 | < 0.2
83 | COC(OC)c1ccnc(-c2ccc(OC(=O)c3ccccc3)cc2)n1 | < 0.4
84 | C=CCNC(=S)Nc1ccc(N(C)C)cc1 | > 35.3
85 | O=C(CN1CCN(c2ccc(O)cc2)CC1)Nc1ccc(S(=O)(=O)N2CCCC2)cc1 | 44.6 (≈ 100 µM)
86 | C=CCC1c2cccc(C(=O)O)c2C(=O)N1c1cccc(OC)c1 (stereo not given) | > 48.5
87 | Cn1c(=O)n(CC(N)=O)c(=O)c2c1nc1n2CCCN1Cc1ccccc1 | 30.8 (≈ 83.6 µM)
88 | C=C(C)c1cccc(C(C)(C)NC(=O)Nc2cccnc2)c1 | 9.4 (≈ 31.8 µM)
89 | Cc1onc(-c2c(F)cccc2Cl)c1C(=O)NC1CC1 | > 44.2
90 | COc1ccc(S(=O)(=O)NC2CC2)cc1Cl | 35.3 (≈ 135 µM)
91 | CC(NC(=O)c1ccncc1)c1ccc(Cl)cc1Cl (stereo not given) | > 44.3
92 | Cc1cccc(NC2SC(=O)NC2=O)c1 (stereo not given) | > 33.3
93 | CCC(C)(C)NC(=O)C1CC(=O)N(CCc2ccc(F)cc2)C1 (stereo not given) | > 48.1
94 | Cc1noc(C)c1C(=O)OC(C)C(=O)Nc1ccc2c(c1)OCO2 (stereo not given) | 11.8 (≈ 35.5 µM)
95 | COc1ccc(N2CCC(CNC(=O)Nc3cccc(OC)c3)C2)cc1 (stereo not given) | 34.5 (≈ 97.1 µM)
96 | CC(=O)N1CCN(C(=O)CSc2ncnc3sc(C)c(C)c23)CC1 | > 54.7

Row | SMILES | solubility kinetic [µg/mL]
97 | COC(=O)c1ccc(CN2C(=O)NC3(CCC(C)CC3)C2=O)cc1 (stereo not given) | 7.5 (≈ 22.7 µM)
98 | Cc1cc(NC(=O)c2ccccc2)no1 | 28.8 (≈ 142 µM)
99 | O=C(NC1CCCCC1)Oc1ccccc1 | 18.3 (≈ 83.5 µM)
100 | C=CCN(Cc1nc(-c2ccccc2)no1)C(=O)c1ccc2c(c1)OCO2 | 21.1 (≈ 58.1 µM)
101 | Cc1ccccc1C(=O)NNC(=O)c1cccn1C | > 38.6
102 | O=Cc1c(NCc2ccccc2Cl)c2ccccc2[nH]c1=O | 17.7 (≈ 56.6 µM)
103 | Cc1ccc(OCCC(=O)OC(C)C(=O)NC2CC2)cc1 (stereo not given) | > 43.7
104 | O=C1c2ccccc2C(=O)N1S(=O)(=O)c1ccccc1 | > 43.1
105 | O=C(c1cccc(NS(=O)(=O)c2ccccc2)c1)N1CCCC1 | 43.9 (≈ 133 µM)
106 | CC1(C)CC(=O)N(c2cc(Cl)cc(Cl)c2)C(=O)C1 | 11.7 (≈ 40.9 µM)
107 | Cc1cccc(Oc2ccc3c(c2)cc(C(=O)O)n3C)c1 | 40.7 (≈ 145 µM)
108 | Cc1cccc(N(Cc2ccccc2)C(=O)CCl)c1 | > 41.1
109 | CCOC(=O)c1csc(NC(=O)c2cccs2)n1 | 28.9 (≈ 102 µM)
110 | CCCn1c(N)c(C(=O)COc2ccc(Br)cc2F)c(=O)n(C)c1=O | 3.9 (≈ 9.42 µM)
111 | CN(C(=O)CN1C(=O)NC2(CCc3ccccc32)C1=O)C1CCCCC1 (stereo not given) | > 53.3
112 | OC(CN1CCc2ccccc2C1)c1ccccc1 (stereo not given) | > 38
113 | COc1cc(Br)c(Br)cc1N | 14.7 (≈ 52.3 µM)
114 | CCCCNC(=O)C1c2ccccc2Oc2ccccc21 | < 0.6
115 | COC(=O)C(O)(c1ccc(NC(=O)c2ccccc2)cc1)C(F)(F)F (stereo not given) | 42.9 (≈ 121 µM)
116 | CCn1c(=O)c(C(=O)Nc2ccccc2)c(O)c2ccccc21 | < 0.3
117 | O=C(COc1ccc(S(=O)(=O)N2CCOCC2)cc1)NC1CC1 | > 51.1
118 | Cc1cc(C(=O)Nc2cc(S(C)(=O)=O)ccc2Cl)c(C)o1 | 11.8 (≈ 36 µM)
119 | Cc1ccccc1NC(=O)COC(=O)c1cc[n+]([O-])cc1 | > 42.9
120 | O=C(NC(=S)Nc1ccccc1CO)C1CCCCC1 | > 43.9
